Measured values: patent US20250171473A1, “Phosphorous Containing BCL Inhibitors and Senolytic Compounds and Uses Thereof” (Rubedo Life Sciences, Inc., priority 2023, published 2025)

Legend:
Type in all cases: cell-based
[1] = tested on: senescent IMR90 cells; experiment: Senescence assay, viability of senescent IMR90 cells (CellTiter-Glo or XTT); details: Homo sapiens, IMR-90; chemotherapy-induced senescent IMR90 cells; compounds 24-72 hours; viability relative to untreated control; read-out: Absolute IC50 average IMR90_SEN IC50
Experimental: (§1) Cells were maintained in DMEM media (high glucose, 4 mM L-glutamine, no sodium pyruvate) supplemented with 10% fetal bovine serum in a humidified incubator at 37° C. with 5% carbon dioxide. Senescence was induced via treatment with a sublethal concentration of chemotherapy (bleomycin, gemcitabine, doxorubicin, 5-fluorouridine, mitomycin C), followed by a rest period without chemotherapy similarly to what is reported by others in the field (e.g., Aoshiba et al., 2003 Eur Respir J 22:436-443). Senescence was qualified by low EdU (5-ethynyl-2′-deoxyuridine) incorporation and high SA-β-Gal (senescence-associated beta-galactosidase) staining compared to proliferating untreated cells. Senescent cells were plated into 96-well plates at a density of 5-15,000 cells/well. The next day, compounds were added in duplicate across ten different concentrations spanning roughly four Log10 units. Cells were incubated with the compounds for 24-72 hours, at which point viability was quantified using CellTiter-Glo (Promega) or XTT (R&D Systems). The viability for treated cells was determined relative to untreated control cells. The log of the compound concentration vs. normalized mean viability was fit to a four parameters Hill function with variable slope. The bottom was constrained to be greater than zero. The X mean value for Y=50 was interpolated to determine the absolute IC50. The results in Table 1 indicate that many of the compounds are active in cells and can induce a dose dependent decrease in the viability of senescent A549 and IMR90 cells.

[2] = tested on: senescent A549 cells; experiment: Senescence assay, viability of senescent A549 cells (CellTiter-Glo or XTT); details: Homo sapiens; chemotherapy-induced senescent A549 cells; compounds 24-72 hours; viability relative to untreated control; read-out: Absolute IC50 average A549_SEN IC50
Experimental: as §1

[3] = tested on: HACAT_SEN; experiment: Senescence assay, viability of senescent HACAT cells (CellTiter-Glo or XTT); details: Homo sapiens, compounds 24-72 hours, viability relative to untreated control, read-out: Absolute IC50 average HACAT_SEN IC50
Experimental: as §1, with “The results in Table 1 indicate that many of the compounds are active in cells and can induce a dose dependent decrease in the viability of senescent A549 and IMR90 cells.” left out

IC50 [2] [nM]	SMILES	IC50 [1] [nM]	IC50 [3] [nM]
10 to 100	Cc1c(-c2ccc(N3CCc4cccc(C(=O)Nc5nc6ccccc6s5)c4C3)nc2P(C)(=O)OCc2ccc(O[C@@H]3O[C@@H](C)[C@@H](O)[C@@H](O)[C@@H]3O)cc2)cnn1CC12CC3CC(CC(C3)C1)C2 (stereo partly drawn) [Compound 3, 4-(((2S,3S,4R,5S,6S)-3,4,5-trihydroxy-6-methyltetrahydro-2H-pyran-2-yl)oxy) benzyl(3-(1-(((3r,5r,7r)-adamantan-1-yl)methyl)-5-methyl-1H-pyrazol-4-yl)-6-(8-(benzo[d]thiazol-2-ylcarbamoyl)-3,4-dihydroisoquinolin-2 (1H)-yl)pyridin-2-yl)(methyl)phosphinate]	100 to 1000	–
10 to 100	Cc1c(-c2ccc(N3CCc4cccc(C(=O)Nc5nc6ccccc6s5)c4C3)nc2P(C)(=O)O)cnn1CC12CC3CC(CC(C3)C1)C2 [Compound 2, (3-(1-(((3r,5r,7r)-adamantan-1-yl)methyl)-5-methyl-1H-pyrazol-4-yl)-6-(8-(benzo[d]thiazol-2-ylcarbamoyl)-3,4-dihydroisoquinolin-2 (1H)-yl)pyridin-2-yl)(methyl)phosphinic acid]	100 to 1000	–
100 to 1000	Cc1cc(N(C)c2nc(P(C)(=O)O)c(CCCOc3ccc(C#CCN(C)C)cc3F)s2)nnc1Nc1nc2ccccc2s1 [Compound 4, (2-((6-(benzo[d]thiazol-2-ylamino)-5-methylpyridazin-3-yl)(methyl)amino)-5-(3-(4-(3-(dimethylamino)prop-1-yn-1-yl)-2-fluorophenoxy)propyl)thiazol-4-yl)(methyl)phosphinic acid]	1000 to 10000	–

SMILES	IC50 [2] [nM]	IC50 [1] [nM]	IC50 [3] [nM]
CCOP(C)(=O)c1nc(N2CCc3cccc(C(=O)Nc4nc5ccccc5s4)c3C2)ccc1-c1cnn(CC23CC4CC(CC(C4)C2)C3)c1C (stereo not drawn) [Compound 1, ethyl(3-(1-(((3r,5r,7r)-adamantan-1-yl)methyl)-5-methyl-1H-pyrazol-4-yl)-6-(8-(benzo[d]thiazol-2-ylcarbamoyl)-3,4-dihydroisoquinolin-2 (1H)-yl)pyridin-2-yl)(methyl)phosphinate]	10 to 100	10 to 100	< 10
